Measured values as given in PubChem BioAssay (NCI).
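Following 48 hours of exposure in 96-well plates, responses at five concentrations were used to interpolate endpoints linearly. The concentration for 50% growth inhibition is given as GI50. TGI marks complete inhibition of growth.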

Experiments:
Assay in all cases: NCI anticancer screen, dose series, 48 h
[1] = test system: 786-0 renal
[2] = test system: CCRF-CEM leukemia
[3] = test system: DU-145 prostate
[4] = test system: IGROV1 ovarian
[5] = test system: NCI-H226 lung
[6] = test system: NCI-H460 lung
[7] = test system: NCI-H522 lung
[8] = test system: SNB-19 CNS
[9] = test system: U251 CNS
[10] = test system: UACC-257 melanoma

Compound | GI50 [1] [µM] | TGI [1] [µM] | GI50 [2] [µM] | TGI [2] [µM] | GI50 [3] [µM] | TGI [3] [µM] | GI50 [4] [µM] | TGI [4] [µM] | GI50 [5] [µM] | TGI [5] [µM] | GI50 [6] [µM] | TGI [6] [µM] | GI50 [7] [µM] | TGI [7] [µM] | GI50 [8] [µM] | TGI [8] [µM] | GI50 [9] [µM] | TGI [9] [µM] | GI50 [10] [µM] | TGI [10] [µM]
Clc1ccc2[nH]cc(-c3nnnn3-c3ccccc3)c2c1 | 29.6 | > 100 | 19.3 | > 100 | 24.5 | > 76.6 | 29.4 | > 77 | 74 | > 100 | 20.3 | > 100 | 18.7 | > 92.5 | 38.4 | > 100 | 14 | > 78.9 | 24.9 | 71
CCOC(=O)C(Cc1ccc(CCCC(=O)NCCC(=O)Nc2ccc3nc(C)sc3c2)cc1)C(=O)OCC | > 77.9 | > 100 | 28.6 | > 89.3 | 51.1 | > 100 | 64.8 | > 100 | 36.1 | > 100 | > 62.4 | > 100 | 33.1 | > 100 | > 100 | > 100 | > 81.4 | > 100 | 34.7 | > 87.1
CO/N=C(\COc1ccc2c(c1)oc(=O)c1cc(OC)ccc12)c1ccc(OC)cc1 | > 100 | > 100 | > 100 | > 100 | > 100 | > 100 | > 100 | > 100 | > 100 | > 100 | > 100 | > 100 | > 100 | > 100 | > 100 | > 100 | > 100 | > 100 | > 100 | > 100
O=C(O)Cc1cc(Cl)ccc1O | – | > 100 | – | > 100 | – | > 100 | – | > 100 | – | > 100 | – | > 100 | – | > 100 | – | > 100 | – | > 100 | – | > 100
CC[C@H]1[C@@H]2C=C[C@@H]3[C@H]4C/C=C\C(=O)NCCC[C@@H]5NC(=O)/C(=C(O)/C=C/[C@@H]4C[C@@H]3[C@H]2C[C@H]1C)C5=O | 0.44 | 1.59 | 1.59 | 4.29 | 0.715 | 1.94 | 0.252 | 0.756 | 0.738 | 2.56 | 0.409 | 1.84 | 6.7 | 15.7 | 1.04 | 2.42 | 1.82 | 3.33 | 1.71 | 3.49
CCOC(=O)Nc1ccc(C)c(NC(=O)OCC)c1 | – | > 100 | – | > 100 | – | > 100 | – | > 100 | – | > 100 | – | > 100 | – | > 100 | – | > 100 | – | > 100 | – | > 100
COc1cc(NS(C)(=O)=O)ccc1Nc1c2ccccc2nc2c1[nH]c1ccc(NC3OC(CO)C(O)C(O)C3O)cc12 (stereo not given) | – | 0.339 | – | 3.12 | – | 0.245 | – | 3.47 | – | 0.201 | – | 0.196 | – | 0.387 | – | 1.46 | – | 0.332 | – | 11
